In patent US8541460B2, “PDK-1/Akt signaling inhibitors” (The Ohio State University, priority 2003, dated 2013):

Assays:
A498 = assay: NCI DTP cell line screen (SRB), Renal Cancer; type: cell-based
Experimental: (§1) Screening of compounds 70 and 71 against several cancer cell lines The human tumor cell lines of the cancer screening panel are grown in RPMI 1640 medium containing 5% fetal bovine serum and 2 mM L-glutamine. For a typical screening experiment, cells are inoculated into 96 well microtiter plates in 100 μL at plating densities ranging from 5,000 to 40,000 cells/well depending on the doubling time of individual cell lines. After cell inoculation, the microtiter plates are incubated at 37° C., 5% CO2, 95% air and 100% relative humidity for 24 h prior to addition of experimental drugs.
(§2) After 24 h, two plates of each cell line are fixed in situ with TCA, to represent a measurement of the cell population for each cell line at the time of drug addition (Tz). Experimental drugs are solubilized in dimethyl sulfoxide at 400-fold the desired final maximum test concentration and stored frozen prior to use. At the time of drug addition, an aliquot of frozen concentrate is thawed and diluted to twice the desired final maximum test concentration with complete medium containing 50 μg/ml gentamicin. Additional four, 10-fold or ½ log serial dilutions are made to provide a total of five drug concentrations plus control. Aliquots of 100 μl of these different drug dilutions are added to the appropriate microtiter wells already containing 100 μl of medium, resulting in the required final drug concentrations.
(§3) Following drug addition, the plates are incubated for an additional 48 h at 37° C., 5% CO2, 95% air, and 100% relative humidity. For adherent cells, the assay is terminated by the addition of cold TCA. Cells are fixed in situ by the gentle addition of 50 μl of cold 50% (w/v) TCA (final concentration, 10% TCA) and incubated for 60 minutes at 4° C. The supernatant is discarded, and the plates are washed five times with tap water and air dried. Sulforhodamine B (SRB) solution (100 μl) at 0.4% (w/v) in 1% acetic acid is added to each well, and plates are incubated for 10 minutes at room temperature. After staining, unbound dye is removed by washing five times with 1% acetic acid and the plates are air dried. Bound stain is subsequently solubilized with 10 mM trizma base, and the absorbance is read on an automated plate reader at a wavelength of 515 nm. For suspension cells, the methodology is the same except that the assay is terminated by fixing settled cells at the bottom of the wells by gently adding 50 μl of 80% TCA (final concentration, 16% TCA). Using the seven absorbance measurements [time zero, (Tz), control growth, (C), and test growth in the presence of drug at the five concentration levels (Ti)], the percentage growth is calculated at each of the drug concentrations levels. Percentage growth inhibition is calculated as: [(Ti−Tz)/(C−Tz)]×100 for concentrations for which Ti>/=Tz [(Ti−Tz)/Tz]×100 for concentrations for which Ti<Tz
(§4) Three dose response parameters are calculated for each experimental agent. […] The drug concentration resulting in total growth inhibition (TGI) is calculated from Ti=Tz. […] Values are calculated for each of these three parameters if the level of activity is reached; however, if the effect is not reached or is exceeded, the value for that parameter is expressed as greater or less than the maximum or minimum concentration tested.
(§5) The methods described were used to test compounds 70 and 71 on a panel of sixty cell lines under a screening service provided by the Developmental Therapeutics Program at the National Institutes of Health. Shown in FIG. 1C are 1, RPMI-8226 leukemia cells; 2; NCI-H322M non-small cell lung cancer cells; 3, HT29 colon cancer cells; 4, U251 CNS cancer cells; 5, SK-MEL-28 melanoma cancer cells; 6, SK-OV-3 ovarian cancer cells; 7, RXF 393 renal cancer cells; 8, PC-3 prostate cancer cells; 9, MDA-MB-231 breast cancer cells.

SN12C = assay: NCI DTP cell line screen (SRB), Renal Cancer; type: cell-based
Experimental: as §1, §2, §3, §4, §5

786-0 = assay: NCI DTP cell line screen (SRB), Renal Cancer; type: cell-based
Experimental: as §1, §2, §3, §4, §5

TK-10 = assay: NCI DTP cell line screen (SRB), Renal Cancer; type: cell-based
Experimental: as §1, §2, §3, §4, §5

HT29 = assay: NCI DTP cell line screen (SRB), Colon Cancer; type: cell-based
HCT-15 = assay: NCI DTP cell line screen (SRB), Colon Cancer; type: cell-based
MCF7 = assay: NCI DTP cell line screen (SRB), Breast Cancer; type: cell-based, human; settings: for TGI: in M (unit assumed)
Experimental: as §1, §2, §3, §4, §5

RPMI-8226 = assay: NCI DTP cell line screen (SRB), Leukemia; type: cell-based, human; settings: for TGI: in M (unit assumed)
Experimental: as §1, §2, §3, §4, §5

[1] = read-out: LC50 (the source's name)

## N=C(N)Nc1ccc(-n2nc(C(F)(F)F)cc2-c2ccc3c(ccc4ccccc43)c2)cc1 [Compound 71, 4-[5-(2-Phenanthrenyl)-3-(trifluoromethyl)-1H-pyrazol-1-yl]-phenyl-guanidine]
A498
  GI50: 16500 nM
  TGI: 4.35E−05
A498; Log10 Concentration −4.0
  Mean Optical Densities: 0.540
  Percent Growth: −43%
A498; Log10 Concentration −5.0
  Mean Optical Densities: 1.903
  Percent Growth: 76%
A498; Log10 Concentration −6.0
  Mean Optical Densities: 1.869
  Percent Growth: 73%
A498; Log10 Concentration −7.0
  Mean Optical Densities: 2.087
  Percent Growth: 91%
A498; Log10 Concentration −8.0
  Mean Optical Densities: 2.413
  Percent Growth: 116%
A498; [1]
  CC50: > 100000 nM
SN12C
  GI50: 1570 nM
  TGI: 2.91E−06
SN12C; Log10 Concentration −4.0
  Mean Optical Densities: 0.224
  Percent Growth: −62%
SN12C; Log10 Concentration −5.0
  Mean Optical Densities: −0.014
  Percent Growth: −100%
SN12C; Log10 Concentration −6.0
  Mean Optical Densities: 1.045
  Percent Growth: 87%
SN12C; Log10 Concentration −7.0
  Mean Optical Densities: 0.998
  Percent Growth: 78%
SN12C; Log10 Concentration −8.0
  Mean Optical Densities: 1.050
  Percent Growth: 88%
786-0
  GI50: 1490 nM
  TGI: 2.91E−06
786-0; Log10 Concentration −4.0
  Mean Optical Densities: 0.458
  Percent Growth: −30%
786-0; Log10 Concentration −5.0
  Mean Optical Densities: 0.046
  Percent Growth: −93%
786-0; Log10 Concentration −6.0
  Mean Optical Densities: 1.663
  Percent Growth: 80%
786-0; Log10 Concentration −7.0
  Mean Optical Densities: 1.868
  Percent Growth: 96%
786-0; Log10 Concentration −8.0
  Mean Optical Densities: 1.862
  Percent Growth: 96%
TK-10
  GI50: 1320 nM
  TGI: 2.59E−06
TK-10; Log10 Concentration −4.0
  Mean Optical Densities: 0.245
  Percent Growth: −64%
TK-10; Log10 Concentration −5.0
  Mean Optical Densities: −0.021
  Percent Growth: −100%
TK-10; Log10 Concentration −6.0
  Mean Optical Densities: 0.998
  Percent Growth: 71%
TK-10; Log10 Concentration −7.0
  Mean Optical Densities: 1.087
  Percent Growth: 90%
TK-10; Log10 Concentration −8.0
  Mean Optical Densities: 1.032
  Percent Growth: 78%
TK-10; [1]
  CC50: 5090 nM
HT29
  GI50: 1500 nM
  TGI: 2.83E−06
HT29; Log10 Concentration −4.0
  Mean Optical Densities: 0.003
  Percent Growth: −99%
HT29; Log10 Concentration −5.0
  Mean Optical Densities: −0.054
  Percent Growth: −100%
HT29; Log10 Concentration −6.0
  Mean Optical Densities: 1.136
  Percent Growth: 82%
HT29; Log10 Concentration −7.0
  Mean Optical Densities: 1.238
  Percent Growth: 91%
HT29; Log10 Concentration −8.0
  Mean Optical Densities: 1.276
  Percent Growth: 95%
HT29; [1]
  CC50: 5320 nM
HCT-15
  GI50: 1540 nM
  TGI: 2.87E−06
HCT-15; Log10 Concentration −4.0
  Mean Optical Densities: 0.082
  Percent Growth: −71%
HCT-15; Log10 Concentration −5.0
  Mean Optical Densities: −0.003
  Percent Growth: −100%
HCT-15; Log10 Concentration −6.0
  Mean Optical Densities: 0.797
  Percent Growth: 84%
HCT-15; Log10 Concentration −7.0
  Mean Optical Densities: 0.779
  Percent Growth: 81%
HCT-15; Log10 Concentration −8.0
  Mean Optical Densities: 0.669
  Percent Growth: 64%
HCT-15; [1]
  CC50: 5360 nM
MCF7
  GI50: 1820 nM
MCF7; Log10 Concentration −4.0
  Mean Optical Densities: 0.229
  Percent Growth: −49%
MCF7; Log10 Concentration −5.0
  Mean Optical Densities: 0.073
  Percent Growth: −84%
MCF7; Log10 Concentration −6.0
  Mean Optical Densities: 1.507
  Percent Growth: 97%
MCF7; Log10 Concentration −7.0
  Mean Optical Densities: 1.340
  Percent Growth: 82%
MCF7; Log10 Concentration −8.0
  Mean Optical Densities: 1.467
  Percent Growth: 93%
MCF7; MCP7
  TGI: 3.44E−06
RPMI-8226
  GI50: 1030 nM
  TGI: 2.25E−06
RPMI-8226; Log10 Concentration −4.0
  Mean Optical Densities: 0.176
  Percent Growth: −47%
RPMI-8226; Log10 Concentration −5.0
  Mean Optical Densities: 0.016
  Percent Growth: −95%
RPMI-8226; Log10 Concentration −6.0
  Mean Optical Densities: 0.513
  Percent Growth: 52%
RPMI-8226; Log10 Concentration −7.0
  Mean Optical Densities: 0.559
  Percent Growth: 65%
RPMI-8226; Log10 Concentration −8.0
  Mean Optical Densities: 0.536
  Percent Growth: 58%

## NCC(=O)Nc1ccc(-n2nc(C(F)(F)F)cc2-c2ccc3c(ccc4ccccc43)c2)cc1 [Compound 70, 2-Amino-N-{4-[5-(2-phenanthrenyl)-3-(trifluoromethyl)-1H-pyrazol-1-yl]-phenyl}-acetamide]
A498
  TGI: 5.75E−06
A498; Log10 Concentration −4.0
  Percent Growth: −54%
A498; Log10 Concentration −5.0
  Percent Growth: −30%
A498; Log10 Concentration −6.0
  Percent Growth: 95%
A498; Log10 Concentration −7.0
  Percent Growth: 126%
A498; Log10 Concentration −8.0
  Percent Growth: 98%
SN12C
  TGI: 3.51E−06
SN12C; Log10 Concentration −4.0
  Percent Growth: −47%
SN12C; Log10 Concentration −5.0
  Percent Growth: −65%
SN12C; Log10 Concentration −6.0
  Percent Growth: 78%
SN12C; Log10 Concentration −7.0
  Percent Growth: 94%
SN12C; Log10 Concentration −8.0
  Percent Growth: 96%
786-0
  TGI: 2.85E−06
786-0; Log10 Concentration −4.0
  Percent Growth: −54%
786-0; Log10 Concentration −5.0
  Percent Growth: −72%
786-0; Log10 Concentration −6.0
  Percent Growth: 60%
786-0; Log10 Concentration −7.0
  Percent Growth: 95%
786-0; Log10 Concentration −8.0
  Percent Growth: 104%
TK-10
  TGI: 3.10E−06
TK-10; Log10 Concentration −4.0
  Percent Growth: −70%
TK-10; Log10 Concentration −5.0
  Percent Growth: −80%
TK-10; Log10 Concentration −6.0
  Percent Growth: 77%
TK-10; Log10 Concentration −7.0
  Percent Growth: 100%
TK-10; Log10 Concentration −8.0
  Percent Growth: 102%
HT29
  TGI: 2.64E−06
HT29; Log10 Concentration −4.0
  Percent Growth: −26%
HT29; Log10 Concentration −5.0
  Percent Growth: −65%
HT29; Log10 Concentration −6.0
  Percent Growth: 47%
HT29; Log10 Concentration −7.0
  Percent Growth: 88%
HT29; Log10 Concentration −8.0
  Percent Growth: 92%
HCT-15
  TGI: 3.19E−06
HCT-15; Log10 Concentration −5.0
  Percent Growth: −47%
HCT-15; Log10 Concentration −6.0
  Percent Growth: 47%
HCT-15; Log10 Concentration −7.0
  Percent Growth: 54%
HCT-15; Log10 Concentration −8.0
  Percent Growth: 81%
MCF7; MCF7, Log10 Concentration −4.0
  Percent Growth: −44%
MCF7; MCF7, Log10 Concentration −5.0
  Percent Growth: −57%
MCF7; MCF7, Log10 Concentration −6.0
  Percent Growth: 43%
MCF7; MCF7, Log10 Concentration −7.0
  Percent Growth: 89%
MCF7; MCF7, Log10 Concentration −8.0
  Percent Growth: 91%
MCF7; MCF7
  TGI: 2.72E−06
RPMI-8226; Log10 Concentration −4.0
  Percent Growth: −31%
RPMI-8226; Log10 Concentration −5.0
  Percent Growth: −51%
RPMI-8226; Log10 Concentration −6.0
  Percent Growth: 42%
RPMI-8226; Log10 Concentration −7.0
  Percent Growth: 72%
RPMI-8226; Log10 Concentration −8.0
  Percent Growth: 85%
RPMI-8226
  TGI: 2.84E−06
